Test results: patent US20250145608A1, “KRAS DEGRADING COMPOUNDS COMPRISING ANNULATED 2-AMINO-3-CYANO THIOPHENES” (Boehringer Ingelheim Int'l GmbH Corp., priority 2021, published 2025)
Read-outs that look alike come from different tables or passages of the source.

Experiments:
Assay type in all cases: cell-based
KRAS(G12D) = target: T1, KRAS(G12D) (Homo sapiens, UniProt P01116, G12D); experiment: HiBit degradation assay in GP5d-HiBit-KRAS(G12D) cells (18 h; DC50, Dmax)
T1 construct: introduced immediately downstream of the initiating Methionine codon of the endogenous KRAS locus; host or cells: GP5d-HiBit-KRAS(G12D), a CRISPR knock-in at the endogenous locus
T1 sequence (P01116 1-188 isoform P01116-2 G12D): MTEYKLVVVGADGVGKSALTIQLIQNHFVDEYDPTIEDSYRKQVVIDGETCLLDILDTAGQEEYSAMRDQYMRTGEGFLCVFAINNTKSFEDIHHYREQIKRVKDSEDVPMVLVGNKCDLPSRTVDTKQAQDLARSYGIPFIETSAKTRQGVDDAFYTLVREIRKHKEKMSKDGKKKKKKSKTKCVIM
Procedure: A HiBit protein detection tag (amino acid sequence […], Seq ID No 1) was introduced immediately downstream of the initiating Methionine codon of the endogenous KRAS locus (Ensembl gene ID ENSG00000133703.7) of GP5d cells (ECACC Cat. No. 95090715) by CRISPR-based genome engineering using a KRAS(G12D) mutant donor construct encoding the HiBit tag. […] Correct modification of the KRAS locus was assessed by PCR-based genotyping and Sanger sequencing of the isolated PCR products. The resulting cell line is referred to as GP5d-HiBit-KRAS(G12D).
To assess PROTAC-mediated degradation of KRAS(G12D), GP5d-HiBit-KRAS(G12D) cells were seeded at 25000 cells per well in 100 μL Dulbecco's Modified Eagle medium (Sigma cat. no. D6429) supplemented with 10% fetal calf serum into white bottom opaque 96 well plates (Perkin Elmer cat no. 5680). Plates were incubated at 37° C., 5% CO2 in a humidified incubator over night to allow the cells to adhere. […] Plates were further incubated at 37° C. for 18 hours. Following incubation, 100 μL per well Promega Nano-Glo HiBit lytic detection reagent mix (Promega Nano-Glo HiBit Lytic Detection System #N3050), prepared according to the manufacturer's instructions in the kit, were added. To allow for adequate cell lysis, plates were incubated on an orbital shaker for 15 min and further incubated 30 min at room temperature. Upon completion of cell lysis, luminescence was measured using an Envision plate reader using the Ultrasensitive Luminescence Protocol for 96 well plates. Luminescence levels were normalized by the values obtained with DMSO-treated samples and plotted as percent of DMSO control. DC50 values were computed using a four parametric logistic model. Dmax values represent the maximal extent of degradation observed and is stated as percent of control (% Ctrl.) treatments. DC50 and Dmax are reported in Table 64 for representative compounds of the invention.

AsPC-1 cells = experiment: AsPC-1 CTG proliferation assay (120 h) (pancreatic cancer, G12D); settings: Homo sapiens, ASPC1, AsPC-1 proliferation
Procedure: AsPC-1 CTG Proliferation Assay (120 h) (Pancreatic Cancer, G12D)
The CTG assay is designed to measure quantitatively the proliferation of AsPC-1 cells (ATCC […]), using the CellTiter Glow Assay Kit (Promega G7571). Cells are grown in RPMI medium (ATCC) supplemented with Fetal Calf Serum (Life Technologies, Gibco BRL, Cat. No. 10270-106). On “day 0” 2000 AsPC-1 cells are seeded in 60 μL RPMI ATCC+10% FCS+ Penstrep in a 384-well plate, flat and clear bottom (Greiner, PNr. 781091). Cells are then incubated in the plates at 37° C. in a CO2 incubator overnight. On day 1, compounds (10 mM stock in DMSO) are added with the ECHO acoustic liquid handler system (Beckman Coulter), including DMSO controls. Plates are incubated for 120 h, and cell viability is measured using CellTiter-Glo luminescent cell viability reagent (Promega product code G7570). Viability (stated as percent of control) is defined as relative luminescence units RLU of each well divided by the RLU of cells in DMSO controls. IC50 values are determined from viability measurements by non-linear regression using a four-parameter model.

NCI-H358 cells = experiment: NCI-H358 CTG proliferation assay (120 h) (NSCLC, G12C); settings: Homo sapiens
Procedure: NCI-H358 CTG Proliferation Assay (120 h) (NSCLC, G12C)
NCI-H358 cells (ATCC No. CRL-5807) are dispensed into white bottom opaque 96 well plates (Perkin Elmer cat no. 5680) at a density of 2000 cells per well in 100 μL RPMI-1640 ATCC-Formulation (Gibco #A10491)+10% FCS (fetal calf serum) (assay 1) or into black 384-well plates, flat and clear bottom (Greiner, PNr. 781091) at a density of 200 cells per well in 60 μl RPMI-1640 ATCC-Formulation (Gibco #A10491)+10% FCS (fetal calf serum) (assay 2). […] Compounds (10 mM stock in DMSO) are added at logarithmic dose series using the HP Digital Dispenser D300 (Tecan) (assay 1) or the ECHO acoustic liquid handler system (Beckman Coulter) (assay 2), normalizing for added DMSO and including DMSO controls. For the TO time point measurement, untreated cells are analyzed at the time of compound addition. Plates are incubated for 120 h, and cell viability is measured using CellTiter-Glo luminescent cell viability reagent (Promega product code G7570). Viability (stated as percent of control) is defined as relative luminescence units RLU of each well divided by the RLU of cells in DMSO controls. IC50 values are determined from viability measurements by non-linear regression using a four parameter model.

SAS cells = experiment: SAS CTG proliferation assay (120 h) (HNSCC, wt amplified)
Procedure: SAS CTG Proliferation Assay (120 h) (HNSCC, Wt Amplified)
(§1) SAS cells (JCRB0260) are dispensed into 384-well plates, flat and clear bottom (Greiner, PNr. 781091) at a density of 300 cells per well in 60 μL DMEM:F12 (Gibco 31330-038)+10% Fetal Calf Serum (HyClone, PNr.: SH30084.03) and incubated at 37° C. in a CO2 incubator overnight. The next day, compounds (10 mM stock in DMSO) are added with the ECHO acoustic liquid handler system (Beckman Coulter), including DMSO controls. Plates are incubated for 120 h, and cell viability is measured using CellTiter-Glo luminescent cell viability reagent (Promega product code G7570). Viability (stated as percent of control) is defined as relative luminescence units RLU of each well divided by the RLU of cells in DMSO controls. IC50 values are determined from viability measurements by non-linear regression using a four-parameter model.

SK—CO-1 cells = experiment: SK-CO-1 CTG proliferation assay (120 h) (CRC, G12V); settings: Homo sapiens, SK-CO-1 proliferation
Procedure: SK—CO-1 CTG Proliferation Assay (120 h) (CRC, G12V)
as §1, with “SK—CO-1 cells (ATCC” for “SAS cells (JCRB0260)”, “SK—CO-1 cells (ATCC HTB-39) are dispensed” for “SAS cells (JCRB0260) are dispensed”, “density of 500 cells per” for “density of 300 cells per”, “60 μL EMEM (Sigma M5650)+10% Fetal Calf” for “60 μL DMEM:F12 (Gibco 31330-038)+10% Fetal Calf”

SW620 cells = experiment: SW620 cell proliferation assay (colorectal cancer, G12V), 5 days; settings: Homo sapiens, SW-620, 120 h
Procedure: SW620 Cell Proliferation Assay (Colorectal Cancer, G12V)
(§2) SW620 cells (ATCC CCL-227) are dispensed into white bottom opaque 96 well plates (Perkin Elmer cat no. 5680) at a density of 2000 cells per well in 100 μL DMEM (BioWhittaker, Cat #BE12-605F) supplemented with 10% FCS. […] Compounds (10 mM stock in DMSO) are added at logarithmic dose series using the HP Digital Dispenser D300 (Tecan), normalizing for added DMSO. For the TO time point measurement, untreated cells are analysed at the time of compound addition. Plates are incubated for 5 days, and cell viability is measured using CellTiter-Glo luminescent cell viability reagent (Promega, Cat. No G7570). Viability (stated as percent of control) is defined as relative luminescence units RLU of each well divided by the RLU of cells in DMSO controls. IC50 values were computed from relative viability values using a four parametric logistic model.

GP5d cells = experiment: GP5d cell proliferation assay (colorectal cancer, G12D), 5 days; settings: Homo sapiens, 120 h
Procedure: GP5d Cell Proliferation Assay (Colorectal Cancer, G12D)
as §2, with “GP5d” for “SW620”, “(ECACC 95090715)” for “(ATCC CCL-227)”, “plates” for “plates (Perkin Elmer cat no. 5680)”, “5000” for “2000”

[1] = assay 2, read-out: H358 (assay 2) IC50
[2] = assay 1, read-out: H358 (assay 1) IC50

SMILES	DC50 (KRAS(G12D)) [nM]	Dmax 18 h (KRAS(G12D)) [% Ctrl]	IC50 (AsPC-1 cells) [nM]	IC50 (NCI-H358 cells; [1]) [nM]	IC50 (SAS cells) [nM]	IC50 (SK—CO-1 cells) [nM]	IC50 (SW620 cells) [nM]	IC50 (GP5d cells) [nM]	IC50 (NCI-H358 cells; [2]) [nM]
Cc1ncsc1-c1ccc(CNC(=O)[C@@H]2C[C@@H](O)CN2C(=O)C(c2cc(OCCCCN3CCCN(c4nccc(-c5cc([C@@]6(C)CCCc7sc(N)c(C#N)c76)no5)n4)[C@@H](C)C3)no2)C(C)C)cc1 (stereo partly shown) [I-6]	8.9	92	645	253	17000	1210	–	–	–
Cc1ncsc1-c1ccc(CNC(=O)[C@@H]2C[C@@H](O)CN2C(=O)C(c2cc(OCCCCN3CCN(c4nccc(-c5noc([C@@]6(C)CCCc7sc(N)c(C#N)c76)n5)n4)[C@@H](C)C3)no2)C(C)C)cc1 (stereo partly shown) [I-11]	35.1	57	–	349	–	–	9000	≥ 9000	712
Cc1ncsc1-c1ccc(CNC(=O)[C@@H]2C[C@@H](O)CN2C(=O)C(c2cc(OCCCCN3CCCN(c4nccc(-c5cc([C@@]6(C)CCCc7sc(N)c(C#N)c76)sn5)n4)[C@@H](C)C3)no2)C(C)C)cc1 (stereo partly shown) [I-12]	42.1	86	–	118	–	–	109	106	407
Cc1cc(CNC(=O)[C@@H]2C[C@@H](O)CN2C(=O)C(c2cc(OCCCCN3CCCN(c4nccc(-c5noc([C@@]6(C)CCCc7sc(N)c(C#N)c76)n5)n4)[C@@H](C)C3)no2)C(C)C)c(F)cc1-c1scnc1C (stereo partly shown) [I-13]	45.2	87	–	336	–	–	206	131	468
CC(C)C(C(=O)N1C[C@H](O)C[C@H]1C(=O)NCc1ccc(-n2ccnc2)cc1)c1cc(OCCCCN2CCCN(c3nccc(-c4noc([C@@]5(C)CCCc6sc(N)c(C#N)c65)n4)n3)[C@@H](C)C2)no1 (stereo partly shown) [I-19]	6.7	93	–	–	–	–	29	23.5	346
CC(C)C(C(=O)N1C[C@H](O)C[C@H]1C(=O)NCc1ccc(Cl)cc1)c1cc(OCCCCN2CCCN(c3nccc(-c4noc([C@@]5(C)CCCc6sc(N)c(C#N)c65)n4)n3)[C@@H](C)C2)no1 (stereo partly shown) [I-20]	8.6	89	–	377	–	–	83.9	92.4	439
CC(C)c1ccc(CNC(=O)[C@@H]2C[C@@H](O)CN2C(=O)C(c2cc(OCCCCN3CCCN(c4nccc(-c5noc([C@@]6(C)CCCc7sc(N)c(C#N)c76)n5)n4)[C@@H](C)C3)no2)C(C)C)cc1 (stereo partly shown) [I-23]	76.7	82	–	527	–	–	267	857	1150
Cc1ncsc1-c1ccc(CNC(=O)[C@@H]2C[C@@H](O)CN2C(=O)C(C(C)C)n2cc(CCCCCN3CCCN(c4nccc(-c5noc([C@@]6(C)CCCc7sc(N)c(C#N)c76)n5)n4)[C@@H](C)C3)nn2)cc1 (stereo partly shown) [I-34]	10.6	91	–	43.8	–	–	51.3	21.7	160
Cc1ncsc1-c1ccc(CNC(=O)[C@@H]2C[C@@H](O)CN2C(=O)[C@@H](NC(=O)COCCCN2CCCN(c3nccc(-c4noc([C@@]5(C)CCCc6sc(N)c(C#N)c65)n4)n3)[C@@H](C)C2)C(C)(C)C)cc1 [I-48]	523	85	–	–	–	–	803	2630	3550
